How the values were obtained:
cells [1] = conditions: read-out: concentration range from which cytotoxicity appears; J. Biol. Chem., 263, 5870 (1988); cited from earlier work
[2] = test system: production of reverse transcriptase (HIV); conditions: J. Med. Chem., 32, 1135 (1989), cited from earlier work
HIV [3] = conditions: J. Biol. Chem., 263, 5870 (1988); cited from earlier work
cells [4] = conditions: J. Med. Chem., 32, 1135 (1989), cited from earlier work
[5] = Lipophilicity test, partition coefficient by shake-flask method; format: physicochemical; conditions: n-octanol / phosphate buffer pH 7.4, shake-flask, HPLC
Procedure: As a method for determining the extent of lipophilicity, it is a general rule to measure the partition coefficient (P) in water-n-octanol. Thus, the lipophilicity test of 2-amino-6-chloropurine-9-β-2',3'-dideoxyribofuranoside concerned with the invention was performed by the method of using partition coefficient P by shake-flask method (J. Pharm. Pharmacol., 39, 253 (1987)).
Namely, n-octanol and phosphate buffer (pH 7.4) were transferred into a separatory funnel and shaken for 3 hours with a shaker, which was then allowed to stand for 12 hours to separate respectively. Into 50 ml of n-octanol-saturated buffer thus obtained was dissolved 1 mg of sample (dried for 12 hours at 50° C. in a vacuum dryer) and 0.5 ml of this solution were taken as a sample for quantitative determination. Remaining 49.5 ml of n-octanol-saturated buffer and 49.5 ml of buffer-saturated n-octanol were transferred into a separatory funnel.
After shaking for 3 hours with a shaker, this was allowed to stand for 2 hours and then centrifuged (1500 rpm, 15 minutes). After gently removing the n-octanol layer, the sample for quantitative determination was taken.
The partition coefficient P is defined as follows:
Co: Concentration of sample in buffer before shaking
Cw: Concentration of sample in buffer after shaking

HIV [6] = conditions: compared with AZT; cited from earlier work
[7] = Cytotoxicity in the anti-HIV test (ATH8 cells); format: cell-based; conditions: human, ath8 cells; DMSO present (1% at 200 μM); attributed to influence of DMSO; read-out: concentration at which cytotoxicity appears
Procedure: (§1) Namely, after pretreatment beforehand with polybrene (made by Sigma Co.), 2×10^5 ATH 8 cells were exposed to AIDS virus (HIV) for 45 minutes to infect (the number of HIV was made so as to be 2000 per ATH8 cell). Successively, the infected cells were suspended into every 1 ml of respective media containing interleukin 2 (IL-2) and being added with anti-HIV agent in various concentrations and into 1 ml of medium containing IL-2 alone and not containing anti-HIV agent at any rate.
(§2) These were cultured at 37° C. in a mixed gas comprising 5% carbon dioxide and 95% air.
(§3) The cells for reference were similarly prepared except allowing to infect with AIDS virus (HIV).
(§4) After 5 days, whole number of cells was counted by hemocytometer method based on the dyeing with trypan blue.

ATH8 cells = assay: Cytotoxicity in the anti-HIV test (ATH8 cells); format: cell-based; conditions: in words
Procedure: as §1, §2, §3, §4

[8] = test system: AIDS virus (HIV) in ATH8 cells; assay: Antivirus test (1), anti-HIV effect in ATH8 cells; format: cell-based; conditions: for IC100: read-out: complete inhibition concentration for HIV
Procedure: as §1, §2, §3, §4

[9] = test system: p24 gag protein of HIV (H9 cells); assay: Antivirus test (2), expression of p24 gag protein in HIV-infected H9 cells; format: cell-based
Procedure: Namely, HIV-infected H9 cells added with anti-HIV agent in various concentrations were cultured for 8 days and 9 days, respectively, to assay the rate (%) of the target H9 cells expressing p24 gag protein of HIV. Measurement was made by a murine monoclonal antibody (M26) method.

[10] = Human immunodeficiency virus 1, ATH-8, 120 h, ATH8 cells, 5 days

SMILES: Nc1nc(Cl)nc2c1ncn2[C@H]1CC[C@@H](CO)O1 [2-chloro-2',3'-dideoxyadenosine]
- MCC (cells [1]): 1 to 10 µM
- anti-HIV effect at 2 μM ([2]; 2 μM): no effect at all
- inhibition of the production of reverse transcriptase at 100 μM ([2]; 100 μM): 97%
- concentration exhibiting HIV inhibition effect (HIV [3]): 1 to 10 µM
- cytotoxicity at 100 μM (cells [4]; 100 μM): 23%

SMILES: Nc1nc(Br)nc2c1ncn2[C@H]1CC[C@@H](CO)O1 [2-bromo-2',3'-dideoxyadenosine]
- MCC (cells [1]): 1 to 10 µM
- concentration exhibiting HIV inhibition effect (HIV [3]): 1 to 10 µM

SMILES: OC[C@@H]1CC[C@H](n2cnc3c(O)ncnc32)O1 [DDI, 2',3'-dideoxyinosine]
- logD [5]: -1.22
- anti-HIV effect in vitro (HIV [6]): higher anti-HIV effect in vitro than that of AZT

SMILES: Nc1nc(Cl)c2ncn([C@H]3CC[C@@H](CO)O3)c2n1 [6-Cl-DDG, 2-amino-6-chloropurine-9-β-D-2',3'-dideoxyribofuranoside]
- MCC at 120 h [7]: > 200 µM
- cytotoxicity (ATH8 cells): low cytotoxicity
- anti-HIV effect compared with DDG ([8]; ATH8 cells, vs DDG): equal or higher anti-HIV effect compared with DDG
- IC100 [8, 10]: 5 µM
- minimal effective concentration ([8]; Human immunodeficiency virus 1, ATH-8, 120 h, ATH8 cells, 5 days, read-out: concentration exhibiting HIV inhibition effect): 2 µM
- anti-AIDS virus effect (anti-HIV effect) ([8]; in words): high anti-AIDS virus effect (anti-HIV effect)
- IC100 ([9]; Human immunodeficiency virus 1, 8th and 9th day, read-out: concentration almost completely inhibiting the expressing of p24): 10 µM
- minimal effective concentration ([9]; Human immunodeficiency virus 1, 8th and 9th day, read-out: concentration exhibiting inhibition effect on the expressing of p24 antigen): 3 µM
- anti-HIV effect compared with DDG ([9]; vs DDG): equal or higher anti-HIV effect compared with DDG

SMILES: Nc1ccn([C@H]2CC[C@@H](CO)O2)c(=O)n1 [DDC, 2',3'-dideoxycytidine]
- anti-HIV effect in vitro (HIV [6]): higher anti-HIV effect in vitro than that of AZT

SMILES: Nc1nc(F)nc2c1ncn2[C@H]1CC[C@@H](CO)O1 [2-fluoro-2',3'-dideoxyadenosine]
- MCC (cells [1]): 1 to 10 µM
- concentration exhibiting HIV inhibition effect (HIV [3]): 1 to 10 µM

SMILES: Nc1nc2c(ncn2[C@H]2CC[C@@H](CO)O2)c(=O)[nH]1 [DDG, 2'3'-dideoxyguanosine]
- logD [5]: -1.06
- IC100 [8, 10]: 10 µM

SMILES: Nc1ncnc2c1ncn2[C@H]1CC[C@@H](CO)O1 [DDA, 2',3'-dideoxyadenosine]
- anti-HIV effect in vitro (HIV [6]): higher anti-HIV effect in vitro than that of AZT

SMILES: Nc1nc(Cl)nc2c1ncn2[C@H]1C=C[C@@H](CO)O1 [2-chloro-2',3'-didehydro-2',3'-dideoxyadenosine]
- inhibition of the production of reverse transcriptase at 20 μM ([2]; 20 μM): 75%
- toxicity at a concentration over 20 μM (cells [4]; over 20 μM): the toxicity is so strong that the test cannot be performed

Source: patent publication US5580860A, “Pharmaceutical composition containing 2-amino-6-chloropurine-9-β-D-2',3'-dideoxyribofuranoxside” (priority 1989, dated 1996)
